Test results reported in US8216786B2, “Genetic polymorphisms associated with cardiovascular diseases, methods of detection and uses thereof” (Celera Corporation, priority 2008, dated 2012).

System: individuals who have previously had an MI
Assay: CARE trial: effect of pravastatin vs placebo on coronary events (endpt1, rmi) by SNP genotype subgroup
Assay type: in vivo, human
Conditions: for HR: pravastatin vs placebo
Procedure: In Tables 21-22, the column labeled “Endpoint” indicates whether the endpoint that was analyzed was the primary endpoint of the CARE study (a composite endpoint of fatal coronary event or nonfatal MI, and identified as “endpt1”) or a composite endpoint of confirmed fatal or nonfatal MI (identified as “rmi”). […] As used herein, the term “benefit” (with respect to a preventive or therapeutic drug treatment) is defined as achieving a reduced risk for a disease that the drug is intended to treat or prevent (e.g., CVD such as CHD, particularly MI, or hypertension) by administering the drug treatment, compared with the risk for the disease in the absence of receiving the drug treatment (or receiving a placebo in lieu of the drug treatment) for the same genotype. […] J. […] (1996) New England Journal of Medicine 335: 1001-1009. […] A well-documented MI was one of the enrollment criteria for entry into the CARE study. Patients were enrolled in the CARE trial from 80 participating study centers. […] For the study of CARE described in this Example and shown in Tables 21-22, two endpoints were investigated: the primary endpoint of CARE (a composite endpoint of fatal coronary event or nonfatal MI, and identified as “endpt1” in the Endpoint column of Tables 21-22) and a composite endpoint of confirmed fatal or nonfatal MI (identified as “rmi” in the Endpoint column of Tables 21-22). […] HR stands for Hazard Ratio, which is a concept similar to Odds Ratio (OR). The HR in event-free survival analysis is the effect of an explanatory variable on the hazard or risk of an event. […] In Table 21, p-interaction values were calculated. An interaction (or effect modification) is formed when a third variable modifies the relation between an exposure and outcome. […] Genotype and drug interaction is present when the effect of statins (incidence rate of disease in statin-treated group, as compared to placebo) differs in patients with different genotypes.

[1] = endpt1, hCV8851065 rs9277343 HLA-DPA1, GC + CC
[2] = endpt1, hCV8851065 rs9277343 HLA-DPA1, GG
[3] = endpt1, hCV8851085 rs1042153 HLA-DPB1, AG + AA
[4] = endpt1, hCV8851085 rs1042153 HLA-DPB1, GG
[5] = endpt1, hCV8851095 rs1042335 HLA-DPB1, TC + CC
[6] = endpt1, hCV8851095 rs1042335 HLA-DPB1, TT
[7] = endpt1, hCV8895373 rs1503185 PTPRJ, AG + AA
[8] = endpt1, hCV8895373 rs1503185 PTPRJ, GG
[9] = endpt1, hCV8901525 rs861539 KLC1, AG + AA
[10] = endpt1, hCV8901525 rs861539 KLC1, GG
[11] = endpt1, hCV8921288 rs1060621 GAPDH, AA
[12] = endpt1, hCV8921288 rs1060621 GAPDH, CA + CC
[13] = endpt1, hCV9055799 rs3734311 IMPG1, CC
[14] = endpt1, hCV9055799 rs3734311 IMPG1, CG + GG
[15] = endpt1, hCV9077561 rs1801274 FCGR2A, AA
[16] = endpt1, hCV9077561 rs1801274 FCGR2A, GA + GG
[17] = endpt1, hCV9506149 rs1250259 FN1, AA
[18] = endpt1, hCV9506149 rs1250259 FN1, TA + TT
[19] = endpt1, hCV9596963 rs6115 SERPINA5, GA + AA
[20] = endpt1, hCV9596963 rs6115 SERPINA5, GG
[21] = endpt1, hCV9604851 rs1805002 CCKBR, AG + AA
[22] = endpt1, hCV9604851 rs1805002 CCKBR, GG
[23] = endpt1, hCV25630686 PSMB9, TC + TT
[24] = endpt1, hCV25631989 rs1135983 ATF6, CC
[25] = endpt1, hCV25631989 rs1135983 ATF6, TC + TT
[26] = endpt1, hCV25637309 rs3204849 CCRL2, AA
[27] = endpt1, hCV25637309 rs3204849 CCRL2, AT + TT
[28] = endpt1, hCV25644901 ITGA9, GA + GG
[29] = endpt1, hCV25651076 rs5743291 NOD2, AG + AA
[30] = endpt1, hCV25651076 rs5743291 NOD2, GG
[31] = endpt1, hCV25651174 rs9277356 HLA-DPB1, GA + GG
[32] = endpt1, hCV342590 rs6030 F5, Strata CC
[33] = endpt1, hCV342590 rs6030 F5, Strata CT
[34] = endpt1, hCV342590 rs6030 F5, Strata TT
[35] = endpt1, hCV435368 rs2812 PECAM1, Strata CC
[36] = endpt1, hCV435368 rs2812 PECAM1, Strata TC
[37] = endpt1, hCV435368 rs2812 PECAM1, Strata TT
[38] = endpt1, hCV3135085 rs10795446 CUBN, Strata GT
[39] = endpt1, hCV3135085 rs10795446 CUBN, Strata TT
[40] = endpt1, hCV3275199 rs2069885 IL9, Strata AA
[41] = endpt1, hCV3275199 rs2069885 IL9, Strata AG
[42] = endpt1, hCV3275199 rs2069885 IL9, Strata GG

## CC[C@H](C)C(=O)O[C@H]1C[C@H](O)C=C2C=C[C@H](C)[C@H](CC[C@@H](O)C[C@@H](O)CC(=O)O)[C@H]21 [pravastatin]
endpt1, hCV8851047 rs45614833 HLA-DPA1, CT + TT
  NONEVENT (Pravastatin arm): 1229
[1]
  EVENTS (Pravastatin arm): 120
  NONEVENT (Pravastatin arm): 1198
[2]
  EVENTS (Pravastatin arm): 13
  NONEVENT (Pravastatin arm): 90
[3]
  EVENTS (Pravastatin arm): 58
  NONEVENT (Pravastatin arm): 491
[4]
  EVENTS (Pravastatin arm): 74
  NONEVENT (Pravastatin arm): 798
[5]
  EVENTS (Pravastatin arm): 126
  NONEVENT (Pravastatin arm): 1216
[6]
  EVENTS (Pravastatin arm): 7
  NONEVENT (Pravastatin arm): 40
[7]
  EVENTS (Pravastatin arm): 53
  NONEVENT (Pravastatin arm): 409
[8]
  EVENTS (Pravastatin arm): 80
  NONEVENT (Pravastatin arm): 882
[9]
  EVENTS (Pravastatin arm): 88
  NONEVENT (Pravastatin arm): 759
[10]
  EVENTS (Pravastatin arm): 45
  NONEVENT (Pravastatin arm): 504
[11]
  EVENTS (Pravastatin arm): 97
  NONEVENT (Pravastatin arm): 815
[12]
  EVENTS (Pravastatin arm): 36
  NONEVENT (Pravastatin arm): 440
[13]
  EVENTS (Pravastatin arm): 15
  NONEVENT (Pravastatin arm): 247
[14]
  EVENTS (Pravastatin arm): 117
  NONEVENT (Pravastatin arm): 1040
[15]
  EVENTS (Pravastatin arm): 36
  NONEVENT (Pravastatin arm): 300
[16]
  EVENTS (Pravastatin arm): 96
  NONEVENT (Pravastatin arm): 985
endpt1, hCV9494470, GG
  EVENTS (Pravastatin arm): 100
  NONEVENT (Pravastatin arm): 884
endpt1, hCV9494470, TG + TT
  EVENTS (Pravastatin arm): 33
  NONEVENT (Pravastatin arm): 407
[17]
  EVENTS (Pravastatin arm): 64
  NONEVENT (Pravastatin arm): 678
[18]
  EVENTS (Pravastatin arm): 69
  NONEVENT (Pravastatin arm): 611
[19]
  EVENTS (Pravastatin arm): 106
  NONEVENT (Pravastatin arm): 1147
[20]
  EVENTS (Pravastatin arm): 26
  NONEVENT (Pravastatin arm): 136
[21]
  EVENTS (Pravastatin arm): 19
  NONEVENT (Pravastatin arm): 113
[22]
  EVENTS (Pravastatin arm): 114
  NONEVENT (Pravastatin arm): 1178
endpt1, hCV25630686 PSMB9, CC
  EVENTS (Pravastatin arm): 128
  NONEVENT (Pravastatin arm): 1206
[23]
  EVENTS (Pravastatin arm): 5
  NONEVENT (Pravastatin arm): 85
[24]
  EVENTS (Pravastatin arm): 107
  NONEVENT (Pravastatin arm): 1044
[25]
  EVENTS (Pravastatin arm): 26
  NONEVENT (Pravastatin arm): 198
[26]
  EVENTS (Pravastatin arm): 24
  NONEVENT (Pravastatin arm): 184
[27]
  EVENTS (Pravastatin arm): 109
  NONEVENT (Pravastatin arm): 1107
endpt1, hCV25640504, TC + CC
  EVENTS (Pravastatin arm): 113
  NONEVENT (Pravastatin arm): 1035
endpt1, hCV25640504, TT
  EVENTS (Pravastatin arm): 12
  NONEVENT (Pravastatin arm): 194
endpt1, hCV25644901 ITGA9, AA
  EVENTS (Pravastatin arm): 124
  NONEVENT (Pravastatin arm): 1171
[28]
  EVENTS (Pravastatin arm): 9
  NONEVENT (Pravastatin arm): 120
[29]
  EVENTS (Pravastatin arm): 28
  NONEVENT (Pravastatin arm): 217
[30]
  EVENTS (Pravastatin arm): 104
  NONEVENT (Pravastatin arm): 1068
[31]
  EVENTS (Pravastatin arm): 76
  NONEVENT (Pravastatin arm): 641
[32]
  EVENTS (Pravastatin arm): 15
  NONEVENT (Pravastatin arm): 123
[33]
  EVENTS (Pravastatin arm): 44
  NONEVENT (Pravastatin arm): 553
[34]
  EVENTS (Pravastatin arm): 74
  NONEVENT (Pravastatin arm): 613
[35]
  EVENTS (Pravastatin arm): 37
  NONEVENT (Pravastatin arm): 369
[36]
  EVENTS (Pravastatin arm): 56
  NONEVENT (Pravastatin arm): 649
[37]
  EVENTS (Pravastatin arm): 40
  NONEVENT (Pravastatin arm): 272
[38]
  EVENTS (Pravastatin arm): 64
  NONEVENT (Pravastatin arm): 554
[39]
  EVENTS (Pravastatin arm): 57
  NONEVENT (Pravastatin arm): 575
[40]
  EVENTS (Pravastatin arm): 5
  NONEVENT (Pravastatin arm): 28
[41]
  EVENTS (Pravastatin arm): 18
  NONEVENT (Pravastatin arm): 310
[42]
  EVENTS (Pravastatin arm): 109
  NONEVENT (Pravastatin arm): 947
hCV16189421, first genotype stratum listed (strata and endpoint not given)
  HR: 1
hCV16189421, second genotype stratum listed (strata and endpoint not given)
  HR: 0.67
hCV25630686, first genotype stratum listed (strata and endpoint not given)
  HR: 0.35
hCV25630686, second genotype stratum listed (strata and endpoint not given)
  HR: 0.81
hCV25631989, first genotype stratum listed (strata and endpoint not given)
  HR: 1.83
hCV25631989, second genotype stratum listed (strata and endpoint not given)
  HR: 0.72
hCV25644901, first genotype stratum listed (strata and endpoint not given)
  HR: 0.32
hCV25644901, second genotype stratum listed (strata and endpoint not given)
  HR: 0.86
